In publication PMC6632053, “Incorporation of Putative Helix-Breaking Amino Acids in the Design of Novel Stapled Peptides: Exploring Biophysical and Cellular Permeability Properties” (Molecules, 2019):
Read-outs that look alike come from different tables or passages of the source. Bridge positions count the residues as written; N and C are the ends. Square brackets hold non-standard residues; d marks the D form. Peptide text beside a SMILES is read from it. R8 = C=CCCCCCC[C@@](C)(N)C(=O)O; Cba = N[C@@H](CC1CCC1)C(=O)O; S5 = C=CCCC[C@](C)(N)C(=O)O

Legend:
[1] = Whole cell homogenate stability; format: in vitro ADME; conditions: 1 μM peptide, 37 °C, up to 22 h
Experimental: Peptides at a concentration of 1 μM were incubated at 37 °C with HCT116 whole cell homogenates prepared from 1 million lysed cells/mL. The reaction was stopped at 0, 1, 2, 4, and 22 h with an organic solvent followed by centrifugation. The resulting supernatant was injected into LC/MS for detection of the tested peptide. The remaining percentage of each compound was normalized to the 0 h amount and reported. As a positive control, we used the ONEG peptide with the sequence […] [28].

[2] = tested on: p53 responsive β-lactamase reporter in HCT116 cells; test: p53 beta-lactamase reporter gene cellular functional assay; format: cell-based
In short: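 HCT116 cells stably carrying a p53-responsive β-lactamase reporter seeded 8000/well overnight, then switched to Opti-MEM with 0% or 10% FBS for compound treatment at 0.5% DMSO final. β-Lactamase activity measured with ToxBLAzer Dual Screen on a multiplate reader.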

[3] = target: T1, human Mdm2 1–125 (Homo sapiens, UniProt Q00987); test: Mdm2 binding assay (competitive fluorescence anisotropy/polarization); conditions: competitive fluorescence polarization, read-out: Mdm2 (nM), Mdm2 binding (Kd)
T1 construct: GST (N); His6 (internal); TEV cleavage site ENLYFQG (internal); made in house; host or cells: Escherichia coli BL21 (DE3) Rosetta T1R

[4] = Circular dichroism (CD) α-helicity; format: physicochemical; conditions: for Helicity (%): CD of free peptide, 25 °C, 1 mM Hepes pH 7.4, 5% methanol
In short: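 Peptide dried from methanol, reconstituted to 1 mM in 1 mM Hepes pH 7.4 with 5% methanol; concentration by A280. CD spectra 300–190 nm, 0.2 cm path, 25 °C, duplicates; converted to mean residue ellipticity and deconvoluted for secondary structure.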

[5] = Lactate dehydrogenase (LDH) release assay; format: cell-based; conditions: membrane integrity, HCT116
Experimental: HCT116 cells were seeded into a 384-well plate at a density of 8000 cells per well. Cells were maintained in McCoy’s 5A Medium with 10% fetal bovine serum (FBS), Blasticidin, and Penicillin/Streptomycin. The cells were incubated overnight, followed by the removal of cell media and the addition of Opti-MEM Medium without FBS. Cells were then treated with peptides for 4 or 16 h in Opti-MEM, either in 10% FBS or in serum free conditions. The final concentration of DMSO was 0.5%. Lactate dehydrogenase release was detected using the CytoTox-ONE Homogenous Membrane Integrity Assay Kit (Promega), as per the manufacturer’s instructions. Measurements were carried out using the Tecan plate reader. Maximum LDH release was defined as the amount of LDH released as induced by the lytic peptide (iDNA79) and used to normalize the results.

[6] = target: T2, recombinant human Mdm2 protein (amino acids 1–125) (Homo sapiens, UniProt Q00987); test: Isothermal titration calorimetry (ITC); format: binding; conditions: Figure 2A middle panel
T2 construct: purified recombinant human Mdm2 protein (amino acids 1–125); made in house
Experimental: Overnight dialysis of protein and peptides were carried out in buffer containing 1× phosphate-buffered saline (PBS) pH 7.2, 3% DMSO, and 0.001% Tween-20. […] Reverse ITC (200 µM of Mdm2 protein titrated into 20 µM of peptide) was carried out for peptides that are insoluble at high concentrations. All experiments were performed in duplicates using the MicroCal PEAQ-ITC Automated system. Data analysis was carried out using the MicroCal PEAQ-ITC Analysis Software.

[7] = target: T3, biotinylated Mdm2 (Homo sapiens, UniProt Q00987); test: Surface plasmon resonance (SPR); format: binding; conditions: Figure 2A right panel, 25 °C
T3 construct: made in house
Experimental: SPR experiments were performed with Biacore T100 (GE Healthcare) at 25 °C. […] The SPR buffer consisted of 50 mM Tris pH 7.4, 150 mM NaCl, 1 mM DTT, 0.05% Tween 20, and 3% DMSO. The CM5 chip was first conditioned with 100 mM HCl, followed by 0.1% SDS, 50 mM NaOH, and then water, all performed twice with 6 sec injection at a flow rate of 100 µL/min. With the flow rate set to 10 µL/min, streptavidin (S4762, Sigma-Aldrich) was immobilized on the conditioned chip through amine coupling, as described in the Biacore manual. Excess protein was removed by 30 s injection of the wash solution (50 mM NaOH + 1 M NaCl) at least eight times. The immobilized level was ~3000 RU. The biotinylated Mdm2 was captured by streptavidin, up to a level of ~400 RU. A flow cell consisting of only streptavidin was used as the reference surface. Using a flow rate of 30 µL/min, peptides dissolved in the SPR buffer were injected for 180 s. The dissociation was monitored for 300 s. […] After the run, responses from the target protein surface were transformed by: (i) correcting with the DMSO calibration curve, (ii) subtracting the responses obtained from the reference surface, and (iii) subtracting the responses of the buffer injections from those of peptide injections. The last step is known as double referencing, which corrects the systematic artefacts. […]

[8] = Table 1, p53 reporter assay, HCT116, read-out: Cellular (µM), cellular activity (EC50)

T1 sequence (Q00987 with tags, fused parts or gaps): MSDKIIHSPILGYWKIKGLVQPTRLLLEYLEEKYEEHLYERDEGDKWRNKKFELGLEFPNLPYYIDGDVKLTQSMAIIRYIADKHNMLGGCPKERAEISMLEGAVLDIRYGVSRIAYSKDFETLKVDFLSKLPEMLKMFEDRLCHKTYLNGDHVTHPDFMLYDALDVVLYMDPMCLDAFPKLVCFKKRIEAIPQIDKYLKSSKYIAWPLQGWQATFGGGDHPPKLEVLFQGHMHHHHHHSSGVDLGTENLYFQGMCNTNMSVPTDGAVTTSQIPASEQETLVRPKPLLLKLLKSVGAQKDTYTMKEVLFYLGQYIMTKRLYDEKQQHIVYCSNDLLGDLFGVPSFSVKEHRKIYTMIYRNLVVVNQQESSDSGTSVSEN
T3 sequence (Q00987 whole entry): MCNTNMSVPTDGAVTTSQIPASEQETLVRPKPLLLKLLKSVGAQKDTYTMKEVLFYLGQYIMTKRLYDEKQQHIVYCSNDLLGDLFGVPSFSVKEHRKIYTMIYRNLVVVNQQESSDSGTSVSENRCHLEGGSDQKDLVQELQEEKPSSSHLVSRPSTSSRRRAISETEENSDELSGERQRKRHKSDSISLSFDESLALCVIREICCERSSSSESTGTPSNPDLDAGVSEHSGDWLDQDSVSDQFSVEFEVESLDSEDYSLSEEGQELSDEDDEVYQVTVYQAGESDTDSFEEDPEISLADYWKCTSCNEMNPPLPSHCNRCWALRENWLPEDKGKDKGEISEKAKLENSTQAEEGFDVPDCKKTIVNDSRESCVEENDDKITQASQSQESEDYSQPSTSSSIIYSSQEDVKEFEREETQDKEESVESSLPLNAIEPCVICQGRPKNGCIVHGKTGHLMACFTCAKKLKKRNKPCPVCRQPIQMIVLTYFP
T2 sequence (Q00987 1-125): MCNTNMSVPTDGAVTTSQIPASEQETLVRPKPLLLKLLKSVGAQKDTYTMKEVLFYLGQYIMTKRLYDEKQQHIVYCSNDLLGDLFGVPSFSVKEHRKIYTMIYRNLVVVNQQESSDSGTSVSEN

With `CC(=O)N[C@@H](CC(C)C)C(=O)N[C@H](C(=O)N[C@@H](Cc1ccccc1)C(=O)NC(C)(C)C(=O)N[C@H](CCC(=O)O)C(=O)N[C@@H](Cc1ccc(O)cc1)C(=O)N[C@@H](Cc1c[nH]c2ccccc12)C(=O)N[C@@H](CCC(N)=O)C(=O)N[C@@H](CC(C)C)C(=O)N[C@@H](CC1CCC1)C(=O)NC(C)(C)C(=O)N[C@@H](CO)C(=O)N[C@@H](C)C(=O)N[C@@H](C)C(N)=O)[C@@H](C)O` [Linear E5(D-Glu)] as the compound, how does the “stability in whole cell homogenate” value [1] read?
The value was “decreased stability”.

And the EC50 [2, 8]?
Its EC50 is > 50 µM.

What about the Kd ([3]; Table 1) of the same compound?
Its Kd is 135 nM.

And the “Helicity (%)” value ([4]; Table 1)?
Its value is 21.4%.

What does the source list for `CC(=O)N[C@@H](CC(C)C)C(=O)N[C@H](C(=O)N[C@@H](Cc1ccccc1)C(=O)NC(C)(C)C(=O)N[C@@H](CCC(=O)O)C(=O)N[C@@H](Cc1ccc(O)cc1)C(=O)N[C@@H](Cc1c[nH]c2ccccc12)C(=O)N[C@@H](CCC(N)=O)C(=O)N[C@@H](CC(C)C)C(=O)N[C@@H](CC1CCC1)C(=O)NC(C)(C)C(=O)N[C@@H](CO)C(=O)N[C@@H](C)C(=O)N[C@@H](C)C(N)=O)[C@@H](C)O` [Linear Parent (MP-189), Ac–Leu–Thr–Phe–Aib–Glu–Tyr–Trp–Gln–Leu–Cba–Aib–Ser–Ala–Ala–NH2]?
stability in whole cell homogenate [1]: moderate stabilities; EC50 [2, 8]: 33.5 µM; Kd ([3]; Table 1): 43.1 nM; Helicity (%) ([4]; Table 1): 35.3%

What does the source list for `CC(=O)N[C@@H](CC(C)C)C(=O)N[C@H](C(=O)N[C@@H](Cc1ccccc1)C(=O)N[C@]1(C)CCCCCCC=CCCC[C@@](C)(C(=O)N[C@@H](CO)C(=O)N[C@@H](C)C(=O)N[C@@H](C)C(N)=O)NC(=O)[C@H](CC2CCC2)NC(=O)[C@H](CC(C)C)NC(=O)[C@H](CCC(N)=O)NC(=O)[C@H](Cc2c[nH]c3ccccc23)NC(=O)[C@H](Cc2ccc(O)cc2)NC(=O)[C@H](CCC(=O)O)NC1=O)[C@@H](C)O` [MP-292]?
stability in whole cell homogenate [1]: minimal degradation; EC50 [5]: > 50000 nM; EC50 ([2]; 0% serum, read-out: p53 reporter assay EC50): 0.5 µM; EC50 ([2]; 2% serum, read-out: p53 reporter assay EC50): 0.7 µM; EC50 ([2]; 10% serum, read-out: p53 reporter assay EC50): 4.2 µM; EC50 [2, 8]: 0.54 µM; Kd ([3]; Table 1): 18.6 nM; Kd [6]: < 20 nM; Helicity (%) ([4]; Table 1): 32.8%; Kd [7]: 1.4 nM

With `CC(=O)N[C@@H](CC(C)C)C(=O)N[C@H](C(=O)N[C@@H](Cc1ccccc1)C(=O)N[C@]1(C)CCCCCCC=CCCC[C@@](C)(C(=O)N[C@@H](CO)C(=O)N[C@@H](C)C(=O)N[C@@H](C)C(N)=O)NC(=O)[C@H](CC2CCC2)NC(=O)[C@H](CC(C)C)NC(=O)[C@H](CCC(N)=O)NC(=O)[C@H](Cc2c[nH]c3ccccc23)NC(=O)[C@H](C)NC(=O)[C@H](CCC(=O)O)NC1=O)[C@@H](C)O` [Peptide Y6A] (Ac-LTF[R8]EAWQL[Cba][S5]SAA-NH2; staple 4-11) as the compound, how does the EC50 [2, 8] read?
The EC50 was 0.55 µM.

What about the Kd ([3]; Table 1) of the same compound?
The Kd was 38.9 nM.

And the “Helicity (%)” value ([4]; Table 1)?
Its value is 50.3%.

Which EC50 [2, 8] does the source give for `CC(=O)N[C@@H](CC(C)C)C(=O)N[C@H](C(=O)N[C@@H](Cc1ccccc1)C(=O)N[C@]1(C)CCCCCCC=CCCC[C@@](C)(C(=O)N[C@@H](CO)C(=O)N[C@@H](C)C(=O)N[C@@H](C)C(N)=O)NC(=O)[C@H](CC2CCC2)NC(=O)[C@H](CC(C)C)NC(=O)[C@@H](CCC(N)=O)NC(=O)[C@H](Cc2c[nH]c3ccccc23)NC(=O)[C@H](Cc2ccc(O)cc2)NC(=O)[C@H](CCC(=O)O)NC1=O)[C@@H](C)O` [Q8(D-Gln)] here?
The EC50 was 2.1 µM.

What about the Kd ([3]; Table 1) of the same compound?
The Kd was 22 nM.

And the “Helicity (%)” value ([4]; Table 1)?
Its value is 27.1%.

With `CC(=O)N[C@@H](CCCCN=[N+]=[N-])C(=O)NCCC(=O)N[C@@H](CC(C)C)C(=O)N[C@H](C(=O)N[C@@H](Cc1ccccc1)C(=O)N[C@]1(C)CCCCCCC=CCCC[C@@](C)(C(=O)N[C@@H](CO)C(=O)N[C@@H](C)C(=O)N[C@@H](C)C(N)=O)NC(=O)[C@H](CC2CCC2)NC(=O)[C@H](CCC(N)=O)N(C)C(=O)[C@H](C)NC(=O)[C@H](Cc2c[nH]c3ccccc23)NC(=O)[C@H](Cc2ccc(O)cc2)NC(=O)[C@H](CCC(=O)O)NC1=O)[C@@H](C)O` [Q9(N-methyl L-Gln)] as the compound, how does the EC50 ([2]; Table 2, p53 reporter assay, HCT116, read-out: Cellular (µM), cellular activity (EC50)) read?
The EC50 was > 50 µM.

And the Kd ([3]; Table 2)?
Its Kd is 211 nM.

What about the “α-helicity by CD” value [4] of the same compound?
Its value is < 30%.

And the “Helicity (%)” value ([4]; Table 2)?
Its value is 20.2%.

For `CC(=O)N[C@@H](CC(C)C)C(=O)N[C@H](C(=O)N[C@@H](Cc1ccccc1)C(=O)N[C@]1(C)CCCCCCC=CCCC[C@@](C)(C(=O)N[C@H](CO)C(=O)N[C@@H](C)C(=O)N[C@@H](C)C(N)=O)NC(=O)[C@H](CC2CCC2)NC(=O)[C@H](CC(C)C)NC(=O)[C@H](CCC(N)=O)NC(=O)[C@H](Cc2c[nH]c3ccccc23)NC(=O)[C@H](Cc2ccc(O)cc2)NC(=O)[C@H](CCC(=O)O)NC1=O)[C@@H](C)O` [S12(D-Ser)], which EC50 [2, 8] is on record?
The EC50 was 1.2 µM.

What about the Kd ([3]; Table 1) of the same compound?
Its Kd is 8.6 nM.

What about the “Helicity (%)” value ([4]; Table 1) of the same compound?
The value was 41.2%.

For `CC(=O)N[C@@H](CC(C)C)C(=O)N[C@@H](C(=O)N[C@@H](Cc1ccccc1)C(=O)N[C@]1(C)CCCCCCC=CCCC[C@@](C)(C(=O)N[C@@H](CO)C(=O)N[C@@H](C)C(=O)N[C@@H](C)C(N)=O)NC(=O)[C@H](CC2CCC2)NC(=O)[C@H](CC(C)C)NC(=O)[C@H](CCC(N)=O)NC(=O)[C@H](Cc2c[nH]c3ccccc23)NC(=O)[C@H](Cc2ccc(O)cc2)NC(=O)[C@H](CCC(=O)O)NC1=O)[C@H](C)O` [T2(D-Thr)], which EC50 [2, 8] is on record?
Its EC50 is 3.4 µM.

And the Kd ([3]; Table 1)?
The Kd was 136 nM.

What about the “Helicity (%)” value ([4]; Table 1) of the same compound?
The value was 40.7%.

For `CC(=O)N[C@@H](CC(C)C)C(=O)N[C@H](C(=O)N[C@@H](Cc1ccccc1)C(=O)N[C@]1(C)CCCCCCC=CCCC[C@@](C)(C(=O)N[C@@H](CO)C(=O)N[C@@H](C)C(=O)N[C@@H](C)C(N)=O)NC(=O)[C@H](CC2CCC2)NC(=O)[C@H](CC(C)C)NC(=O)[C@H](CCC(N)=O)NC(=O)[C@@H](Cc2c[nH]c3ccccc23)NC(=O)[C@H](Cc2ccc(O)cc2)NC(=O)[C@H](CCC(=O)O)NC1=O)[C@@H](C)O` [W6(D-Trp) (MP-384)], which EC50 [2, 8] is on record?
Its EC50 is 0.6 µM.

And the Kd ([3]; Table 1)?
Its Kd is 30 nM.

And the “Helicity (%)” value ([4]; Table 1)?
The value was 41.0%.

For `CC(=O)N[C@@H](CC(C)C)C(=O)N[C@H](C(=O)N[C@@H](Cc1ccccc1)C(=O)N[C@]1(C)CCCCCCC=CCCC[C@@](C)(C(=O)N[C@@H](CO)C(=O)N[C@@H](C)C(=O)N[C@@H](C)C(N)=O)NC(=O)[C@H](CC2CCC2)NC(=O)[C@H](CC(C)C)NC(=O)[C@H](CCC(N)=O)NC(=O)[C@H](Cc2c[nH]c3ccccc23)NC(=O)[C@@H](Cc2ccc(O)cc2)NC(=O)[C@H](CCC(=O)O)NC1=O)[C@@H](C)O` [Y6 (D-Tyr)], which EC50 [2, 8] is on record?
Its EC50 is 3.2 µM.

And the Kd ([3]; Table 1)?
Its Kd is 286 nM.

And the “Helicity (%)” value ([4]; Table 1)?
Its value is 43.2%.
